Experimental data published in patent publication US6592899B2, “PLA/PLGA oligomers combined with block copolymers for enhancing solubility of a drug in water” (Macromed Incorporated, priority 2001, dated 2003).
In brackets after ≈: the same amount, converted by molar mass.

Columns and labels:
[1] = Amphotericin B solubility in triblock copolymer solution with or without PLA oligomers (dialysis preparation); type: physicochemical
Protocol: The mixture was added to dialysis tubing with a 3500 Dalton molecular weight cutoff and dialyzed against reverse osmosis deionized water (pH=2) overnight. The dialysate was then exchanged for reverse osmosis deionized water and dialyzed overnight. The reported solubility of amphotericin B in water is 3 μg/mL. […] The maximum concentration of amphotericin B in the mixture of PLA oligomers and the triblock copolymer was improved greater then 10 fold than that in the triblock copolymer alone.

[2] = cited from earlier work
[3] = Solution stability of paclitaxel in Me-PEG-PLGA diblock copolymer with or without PLA oligomer; type: physicochemical; conditions: 40 mg paclitaxel, 2 mL water
Protocol: The PLA oligomers prepared in Example 4 (75 mg) were added to 600 mg of Me-PEG-PLGA diblock copolymer prepared in Example 9, 40 mg of paclitaxel, and 2 mL of reverse osmosis deionized water. […] The solution was then filtered through a 0.2 μm filter. […] Precipitate began to appear within 1 day from the Me-PEG-PLGA diblock copolymer system alone, while the solution containing the PLA oligomer maintained paclitaxel in solution and remained clear for more than 2 days.

[4] = Solution stability of paclitaxel in PLGA-PEG-PLGA triblock copolymer with or without PLA oligomer; type: physicochemical; conditions: 40 mg paclitaxel, 2 ml water, 0.2 μm filtered
Excerpt: The solution stability enhancing properties of PLA oligomers are illustrated in this example. […] The solution was then filtered through a 0.2 μm filter. […] A precipitate appeared within 1 day with the PLGA-PEG-PLGA triblock copolymer system alone, while the solution containing the PLA oligomer maintained paclitaxel in solution and remained clear for more than 3 days.

Row | time paclitaxel maintained in solution and remained clear ([3]; Me-PEG-PLGA diblock copolymer (600 mg) with PLA oligomer (75 mg)) | time until precipitate began to appear ([3]; Me-PEG-PLGA diblock copolymer system alone (600 mg)) [days] | time paclitaxel maintained in solution and remained clear ([4]; PLGA-PEG-PLGA triblock copolymer (600 mg) with PLA oligomer (75 mg)) | time until a precipitate appeared ([4]; PLGA-PEG-PLGA triblock copolymer system alone (600 mg)) [days] | Compound | improvement of maximum concentration over the triblock copolymer alone ([1]; mixture of PLA oligomers and the triblock copolymer) [fold] | solubility ([1]; triblock copolymer solution of Example 1 (entry 1), without PLA oligomers) [µg/mL] | reported solubility in water [2] [µg/mL]
1 |  |  |  |  | C[C@@H]1[C@H](O)[C@@H](C)/C=C/C=C/C=C/C=C/C=C/C=C/C=C/[C@H](O[C@@H]2O[C@H](C)[C@@H](O)[C@H](N)[C@@H]2O)C[C@@H]2O[C@](O)(C[C@@H](O)C[C@@H](O)[C@H](O)CC[C@@H](O)C[C@@H](O)CC(=O)O[C@H]1C)C[C@H](O)[C@H]2C(=O)O [amphotericin B] | > 10 | 150 (≈ 162 µM) | 3
2 | more than 2 days | ≤ 1 | more than 3 days | ≤ 1 | CC(=O)O[C@H]1C(=O)[C@@]2(C)[C@H]([C@H](OC(=O)c3ccccc3)[C@]3(O)C[C@H](OC(=O)[C@H](O)[C@@H](NC(=O)c4ccccc4)c4ccccc4)C(C)=C1C3(C)C)[C@]1(OC(C)=O)CO[C@@H]1C[C@@H]2O [paclitaxel] |  |  | 
